Test results published in patent US20240384236A1, “3D RECONSTITUTED BONE MARROW NICHE AND USES THEREOF” (The University of Hong Kong, priority 2023, published 2024).
Read-outs that look alike come from different tables or passages of the source.

System: primary AML cells
Experiment: Sample drug screening: viability of primary AML cells (PrestoBlue) after 24 h drug exposure in nine culture conditions
Details: for IC50: Homo sapiens; for sensitivity of AML cells to the drug: co-culture with AML MSC-derived niches; for chemosensitivity of primary AML cells towards the drug: co-culture with healthy 3DON

Row | Compound | IC50 (read-out: IC50 daunorubicin, primary AML cells co-cultured with AML 2DMN) | IC50 (read-out: IC50 daunorubicin, primary AML cells co-cultured with AML 3DMN) | IC50 (read-out: IC50 daunorubicin, primary AML cells co-cultured with AML 3DON) | IC50 (read-out: IC50 daunorubicin, primary AML cells co-cultured with healthy 2DMN) | IC50 (read-out: IC50 daunorubicin, primary AML cells co-cultured with healthy 3DMN) | IC50 (read-out: IC50 daunorubicin, primary AML cells in NC1 (AML medium)) | IC50 (read-out: IC50 daunorubicin, primary AML cells in NC2 (MSC medium)) | IC50 (read-out: IC50 daunorubicin, primary AML cells in PC (engineered growth factor cocktail medium)) | sensitivity of AML cells to the drug | chemosensitivity of primary AML cells towards the drug
1 | COc1cccc2c1C(=O)c1c(O)c3c(c(O)c1C2=O)C[C@@](O)(C(C)=O)C[C@@H]3O[C@H]1C[C@H](N)[C@H](O)[C@H](C)O1 [daunorubicin] | 74 µM | 55.9 µM | 43.4 µM | 0.571 µM | 3.31 µM | 0.0486 µM | 0.525 µM | 34.3 µM | less sensitive | increase the chemosensitivity
2 | COc1cccc2c1C(=O)c1c(O)c3c(c(O)c1C2=O)C[C@@](O)(C(=O)CO)C[C@@H]3O[C@H]1C[C@H](N)[C@H](O)[C@H](C)O1 [doxorubicin] | – | – | – | – | – | – | – | – | less sensitive | increase the chemosensitivity
